This note sets out measurements from patent US11649245B2, “Cyclopropylamine compound as LSD1 inhibitor and use thereof” (HELIOEAST PHARMACEUTICAL CO., LTD., priority 2018, dated 2023).

Counter-ions that a name gives are not always drawn. Like-named read-outs stand apart in the source and are kept apart here.

The target in one series is human LSD1 (Homo sapiens, UniProt O60341). Description: In vitro enzyme activity screening against LSD1 (HRP/Amplex Red fluorescence coupling enzyme method). It is filed as biochemical. As to conditions: human LSD1, histone H3K4me peptide substrate 20 μM. On the procedure: The purpose of this test was to detect the in vitro inhibitory activity of the compounds against LSD1. The enzyme used in this test was human LSD1, the standard substrate was histone H3K4me peptide (20 μM), the fluorescence coupling enzyme method was used to determine the activity of the compound by combining horseradish peroxidase (HRP) and fluorescent reagent Amplex Red to detect the H2O2 generation as a result of the reaction of LSD1. Compounds were tested in 10-dose IC50 mode with a 3-fold serial dilution starting at 10 μM. The enzyme and […] to start the reaction. Fluorescence detector: Envision, excitation wavelength: Ex/Em=530/590 […]

Another series concerns NCI-H1417 cells. Put plainly: Antiproliferation activity on NCI-H1417 cells (CellTiter-Glo, 10 days). It is filed as cell-based, human. The following applies: incubated for 10 days. The method, then: Experimental purpose: to detect the antiproliferation activity of the compounds on NCI-H1417 cells.
Experimental materials: RPMI 1640 culture medium, fetal bovine serum, Promega CellTiter-Glo reagent. NCI-H1417 cell line purchased from ATCC. Envision multi-label reader (PerkinElmer).
Experimental method: the compounds were dissolved to 10 mM, then the compounds were diluted 5 times with DMSO in a compound plate, the compounds were diluted 3-fold with Bravo from a starting concentration of 2 mM to the 10th concentration, 250 nL of the solutions were transferred to the upper and lower duplicate wells on a blank 384 cell plate by Echo transfer plate, cell suspension of per well/1000 cells/50 μL was added to the transferred 250 nL DMSO/compound, the compounds were diluted 200-fold, i.e., the initial action concentration was 10 μM. The cell plate was placed in a carbon dioxide incubator and incubated for 10 days. 25 μL of Promega CellTiter-Glo reagent was added to each well on the cell plate and was shaken at room temperature for 10 minutes to stabilize the luminescence signal. Readings were performed by PerkinElmer Envision multi-label analyzer.
Data analysis: the equation (Max-Ratio)/(Max-Min)*100% was used to convert the original data into the inhibition rate, the value of IC50 can be obtained by curve fitting of four-parameters (the 205 mode in XLFITS, iDBS).
(ATP-based viability assays read luminescence as a measure of living cells.)

The next series relates to HL60 cells. Description: Antiproliferation activity on HL60 cells (CellTiter-Glo, 6 days). It is filed as cell-based. As to conditions: incubated for 6 days. The source says: Experimental purpose: to detect the antiproliferation activity of the compound to be tested on HL60 cells.
Experimental materials: RPMI-1640 culture medium, fetal bovine serum, penicillin/streptomycin antibiotics purchased from Wisent. CellTiter-Glo (chemiluminescent cell viability assay reagent) reagents purchased from Promega. HL60 cell line purchased from Nanjing Cobioer Co., Ltd. Nivo multi-label reader (PerkinElmer).
Experimental method: HL60 cells were planted in a white 384-well plate, 40 μL of cell suspension per well, 600 HL60 cells were contained therein. The cell plate was placed in a carbon dioxide incubator for overnight culture. The compounds to be tested were diluted 5-fold with a pipet until the 10th concentration, i.e., diluted from 2 mM to 1.024 nM, double duplicate well experiment was set. 78 μL of the culture medium was added to an intermediate plate, and then 2 μL per well of the serially diluted compounds were transferred to the corresponding positions on the intermediate plate, after mixing, 10 μL per well was transferred to the cell plate. The cell plate was incubated in a carbon dioxide incubator for 6 days. Another cell plate was prepared and the signal value on the day of dosing was read as the maximum value (Max value in the equation below) to participate in the data analysis. 20 μL of chemiluminescent cell viability assay reagent was added to each well of this cell plate, which was incubated at room temperature for 10 minutes to stabilize the luminescence signal. The multi-label reader was used for reading.
(§1) Data analysis: the equation (Sample-Min)/(Max-Min)*100% was used to convert the original data into the inhibition rate, the IC50 value can be obtained by curve fitting of four-parameters (“log(inhibitor) vs. response—Variable slope” mode in GraphPad Prism)).

The test system of the next series is MV-4-11 cells. Description: Antiproliferation activity on MV-4-11 cells (CellTiter-Glo, 6 days). Type of series: cell-based. As to conditions: incubated for 6 days.
From the text: Experimental purpose: to detect the antiproliferation activity of the compound to be tested on MV-4-11 cells.
Experimental materials: IMDM culture medium, fetal bovine serum, penicillin/streptomycin antibiotics purchased from Wisent. CellTiter-Glo (chemiluminescent cell viability assay reagent) reagents purchased from Promega. MV-4-11 cell line was purchased from Nanjing Cobioer Co., Ltd. Nivo Multi-Marker Analyzer (PerkinElmer).
Experimental method: MV-4-11 cells were planted in a white 96-well plate, 80 μL of cell suspension per well, which contained 6000 MV-4-11 cells. The cell plate was placed in a carbon dioxide incubator for overnight culture.
The compounds to be tested were diluted 5-fold with a pipet until the 8th concentration, i.e., diluted from 2 mM to 25.6 nM, double duplicate well experiment was set. 78 μL of the culture medium was added to an intermediate plate, and then 2 μL per well of the serially diluted compounds were transferred to the corresponding positions on the intermediate plate, after mixing, 20 μL per well was transferred to the cell plate. The cell plate was incubated in a carbon dioxide incubator for 6 days. Another cell plate was prepared and the signal value on the day of dosing was read as the maximum value (Max value in the equation below) to participate in the data analysis. 25 μL of the chemiluminescent cell viability assay reagent was added to each well of this cell plate, which was incubated at room temperature for 10 minutes to stabilize the luminescence signal. The multi-label analyzer was used for reading.
as §1

Series [1] can be described thus: In vivo pharmacokinetics in CD-1 mice. As to conditions: male CD-1 mice; for Half-life T1/2 (IV) / half-life: IV 1 mg/kg; for Half-life T1/2 (IV) / half-life / clearance / Vd: 1 mg/kg; for The area under the plasma concentration-time curve AUC0-last PO / AUC(0-t): PO 2 mg/kg; for The area under the plasma concentration-time curve AUC0-last PO / AUC(0-t) / bioavailability: 2 mg/kg; for Bioavailability F / bioavailability: oral 2 mg/kg vs intravenous 1 mg/kg; for Clearance CL / Volumes of distribution Vdss / Cmax / clearance / Vd: study doses 1 mg/kg intravenous, 2 mg/kg oral; for Cmax: route not given, read-out: Max concentration Cmax; for half-life / clearance / Vd: iv; for half-life: read-out: Half-life T1/2 (IV) (converted); for clearance: read-out: Clearance CL; for Vd: read-out: Volumes of distribution Vdss; for AUC(0-t) / bioavailability: po; for AUC(0-t): read-out: The area under the plasma concentration-time curve AUC0-last PO; for bioavailability: read-out: Bioavailability F. The method, then:
CD-1 mice (male, 7-9 weeks old, Shanghai Slac)
The rodent pharmacokinetic characteristics after intravenous injection and oral administration of the compounds were tested by standard protocols, in the experiment, the candidate compounds were formulated into clear solutions and administrated to mice via a single intravenous injection and oral administration. The vehicle for intravenous injection and oral administration was a mixed solution of 10% of dimethyl sulfoxide and 90% of 10% hydroxypropyl β cyclodextrin. This project used four male CD-1 mice, two mice were administered intravenously, with a dose of 1 mg/kg, and plasma samples were collected at 0 hour (before administration) and 0.0833, 0.25, 0.5, 1, 2, 4, 8, 24 hours after administration. The other two mice were orally administered by gavage, with a dose of 2 mg/kg, plasma samples were collected at 0 hour (before administration) and 0.25, 0.5, 1, 2, 4, 8, 24 hours after administration, whole blood samples were collected within 24 hours, which were centrifuged at 3000 g for 15 minutes, and the supernatants were separated to obtain plasma samples, 4 times volume of acetonitrile solutions containing internal standard were added to precipitate the protein, the mixtures were centrifuged to obtain the supernatants, the supernatants were added with water of equal volume and centrifuged again to take the supernatant for injection, and the blood drug concentration was quantitatively analyzed by the LC-MS/MS analysis method, and pharmacokinetic parameters were calculated, such as max concentration (Cmax), clearance (CL), half-life (T1/2), volumes of distribution (Vdss), the area under the plasma concentration-time curve (AUC0-last), bioavailability (F) etc.

On to `O=C(O)c1ccc(CN2CCC3(CC2)CC(N[C@@H]2C[C@H]2c2ccccc2)CO3)cc1` (stereo partly drawn) [Hydrochloride of the compound 15], for which the midpoint of inhibition against human LSD1, the IC50, lay at 353 nM. Also, in the series with NCI-H1417 cells, the IC50 (commonly the concentration that gives 50% inhibition) stood at 13.1 nM. Further, in the series on HL60 cells, the IC50 turned out to be 13.8 nM. This molecule yielded an IC50 in the series with MV-4-11 cells of 13.2 nM. In addition, in series [1], the “Half-life T1/2 (IV)” value came out at 29.4 min, the “The area under the plasma concentration-time curve AUC0-last PO” value is 0.765 µM·h, the “Bioavailability F” value is on record as 39.1% and the “Clearance CL” value was found to be 41.8 mL/min/kg. Moreover, in series [1], the “Volumes of distribution Vdss” value came out at 0.835 L/kg and the Cmax amounted to 919 nM.

As to `NC1(C(=O)N2CCC3(CC2)CC(N[C@@H]2C[C@H]2c2ccccc2)CO3)CC1` (stereo partly drawn) [Hydrochloride of the compound 34], the IC50 against human LSD1 amounted to 38.4 nM. In addition, the midpoint of inhibition in the series with NCI-H1417 cells (Homo sapiens, NCI-H1417, 240 h), the IC50, lay at 4.38 nM. The IC50 in the series on HL60 cells (Homo sapiens, HL-60, 144 h) was 1.92 nM. In the series with MV-4-11 cells (Homo sapiens, MV4-11, 144 h), this molecule registered an IC50 of 1.37 nM. Moreover, in series [1] (male, CD-1, mouse, plasma), the half-life is 83.4 min, the clearance was determined as 25.3 mL/min/kg, the Vd was determined as 2.09 L/kg and the Cmax turned out to be 1150 nM. In series [1] (male, CD-1, mouse, plasma), the AUC(0-t) was 2.14 µM·h and the bioavailability (usually the share of a dose that reaches the circulation, judged against a reference dose that is usually intravenous) was 58.3%.

Take `O=C(O)C1(CN2CCC3(CC2)CC(N[C@@H]2C[C@H]2c2ccccc2)CO3)CCC1` (stereo partly drawn) [Hydrochloride of the compound 30]: the IC50 against human LSD1 stood at 1140 nM; in the series on NCI-H1417 cells (Homo sapiens, NCI-H1417, 240 h), 91.4 nM; in the series with HL60 cells (Homo sapiens, HL-60, 144 h), 337 nM; in the series on MV-4-11 cells (Homo sapiens, MV4-11, 144 h), 33.1 nM.

As for `O=C(O)c1ccc(CCN2CCC3(CC2)CC(N[C@@H]2C[C@H]2c2ccccc2)CO3)cc1` (stereo partly drawn) [Hydrochloride of the compound 19], the IC50 worked out at 208 nM at human LSD1; 6.95 nM in the series with NCI-H1417 cells (Homo sapiens, NCI-H1417, 240 h); 1.46 nM with HL60 cells (Homo sapiens, HL-60, 144 h); 4.41 nM with MV-4-11 cells (Homo sapiens, MV4-11, 144 h).

For the molecule `O=C(O)c1ccc2cc(CN3CCC4(CC3)CC(N[C@@H]3C[C@H]3c3ccccc3)CO4)ccc2c1` (stereo partly drawn) [Hydrochloride of the compound 17], the IC50 stood at 70.6 nM on human LSD1; 0.65 nM in the series on NCI-H1417 cells (Homo sapiens, NCI-H1417, 240 h); 0.78 nM in the series on HL60 cells (Homo sapiens, HL-60, 144 h); 2.86 nM in the series on MV-4-11 cells (Homo sapiens, MV4-11, 144 h).

For the molecule `N#Cc1ccc(CN2CCC3(CC2)CC(N[C@@H]2C[C@H]2c2ccccc2)CO3)cc1` (stereo partly drawn) [Hydrochloride of the compound 21], the IC50 against human LSD1 came to 92.2 nM; in the series with NCI-H1417 cells (Homo sapiens, NCI-H1417, 240 h) it was 1.12 nM; in the series with HL60 cells (Homo sapiens, HL-60, 144 h) it was 1.17 nM; with MV-4-11 cells (Homo sapiens, MV4-11, 144 h), 0.46 nM.

In turn, `O=C(O)c1ccc(CN2CCC3(CC2)CC(N[C@@H]2C[C@H]2c2ccccc2)CO3)cc1` (stereo partly drawn) [Hydrochloride of the compound 16] registered an IC50 against human LSD1 of 262 nM. The same molecule had an IC50 in the series with NCI-H1417 cells (Homo sapiens, NCI-H1417, 240 h) of 12.1 nM. In the series with HL60 cells (Homo sapiens, HL-60, 144 h), the IC50 worked out at 8.46 nM. The same molecule registered an IC50 in the series on MV-4-11 cells of 13.7 nM. For the same molecule, in series [1], the “Half-life T1/2 (IV)” value was 34.7 min, the “The area under the plasma concentration-time curve AUC0-last PO” value stood at 0.891 µM·h, the “Bioavailability F” value worked out at 36.9% and the “Clearance CL” value turned out to be 33.8 mL/min/kg. Moreover, in series [1], the “Volumes of distribution Vdss” value is on record as 0.88 L/kg and the Cmax was 860 nM.

Regarding `O=C(O)CC1(N2CCC3(CC2)CC(N[C@@H]2C[C@H]2c2ccccc2)CO3)CNC1` (stereo partly drawn) [Hydrochloride of the compound 32], the IC50 amounted to 1160 nM against human LSD1; 3.97 nM with NCI-H1417 cells (Homo sapiens, NCI-H1417, 240 h); 0.55 nM in the series with HL60 cells (Homo sapiens, HL-60, 144 h); 1.9 nM in the series on MV-4-11 cells (Homo sapiens, MV4-11, 144 h).

Regarding `O=C(O)c1ccc(CN2CCC3(CC2)CC(N[C@@H]2C[C@H]2c2ccccc2)CO3)cn1` (stereo partly drawn) [Hydrochloride of the compound 20], the midpoint of inhibition on human LSD1, the IC50, lay at 242 nM. Also, in the series on NCI-H1417 cells (Homo sapiens, NCI-H1417, 240 h), 3.99 nM corresponded to half-maximal inhibition (IC50). Besides, in the series with HL60 cells (Homo sapiens, HL-60, 144 h), the IC50 was found to be 8.99 nM. Also, in the series on MV-4-11 cells (Homo sapiens, MV4-11, 144 h), 9.56 nM corresponded to half-maximal inhibition (IC50). In addition, in series [1] (male, CD-1, mouse, plasma), the half-life is 54.3 min, the clearance came out at 19.7 mL/min/kg, the Vd was found to be 0.752 L/kg and the Cmax worked out at 714 nM. Besides, in series [1] (male, CD-1, mouse, plasma), the AUC(0-t) is 1.34 µM·h and the bioavailability is 29%.
